Some test systems named below: UACC-62 melanoma; A549 NSCLC; NCI-H23 lung; HCT-116 colon; EKVX NSCLC; SK-MEL-2 melanoma; HCT-15 colon; SK-MEL-5 melanoma; SNB-19 CNS; PC-3 prostate; TK-10 renal; A498 renal; UO-31 renal; SR leukemia; T-47D breast; HCC-2998 colon; RPMI-8226 leukemia; HOP-62 NSCLC; U251 CNS; SNB-75 CNS.
Holding throughout (test): NCI tumour cell line growth inhibition, 48 h

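Briefly, cells in 96-well plates were exposed to five compound concentrations for 48 h, and endpoints were estimated by linear interpolation. TGI: concentration producing complete growth inhibition.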 Some results are limits rather than exact numbers.

For the compound `CC(C)=NOC(=O)CNC(=O)C(Cc1ccccc1)NC(=O)C(C)NC(=O)OC(C)(C)C` (stereo not given), the TGI in the experiment on UACC-62 melanoma, in the experiment on A549 NSCLC, with NCI-H23 lung, in the experiment with HCT-116 colon, in the experiment with EKVX NSCLC and in the experiment on SK-MEL-2 melanoma was > 100 µM each time. The TGI in the experiment with HCT-15 colon, in the experiment on SK-MEL-5 melanoma, in the experiment with SNB-19 CNS, with PC-3 prostate, with TK-10 renal and with A498 renal was > 100 µM throughout. The TGI with UO-31 renal, with SR leukemia, in the experiment on T-47D breast, with HCC-2998 colon, in the experiment with RPMI-8226 leukemia and in the experiment with HOP-62 NSCLC was > 100 µM in each case. In addition, the TGI in the experiment on U251 CNS and in the experiment on SNB-75 CNS was > 100 µM each time.
For `CCc1ccc2[nH]c(O)c(C3=Nc4ccccc4C3=O)c2c1`, the TGI with UACC-62 melanoma was 43.3 µM; in the experiment on A549 NSCLC, 59.7 µM; in the experiment with NCI-H23 lung it was > 100 µM; in the experiment on HCT-116 colon, 35.4 µM; in the experiment with EKVX NSCLC, 24.2 µM; with SK-MEL-2 melanoma it was 43.7 µM. Besides, the TGI is > 100 µM in the experiment on HCT-15 colon; 33.4 µM with SK-MEL-5 melanoma; 31.2 µM in the experiment on SNB-19 CNS; 50.1 µM in the experiment with PC-3 prostate; 37 µM with TK-10 renal; 18.2 µM in the experiment on A498 renal. Besides, the TGI is 37.9 µM in the experiment on UO-31 renal; 37.8 µM with SR leukemia; 77.5 µM with T-47D breast; 53.2 µM in the experiment with HCC-2998 colon; > 100 µM with RPMI-8226 leukemia; 41.4 µM in the experiment on HOP-62 NSCLC. Also, the TGI in the experiment with U251 CNS was found to be 38.2 µM; in the experiment with SNB-75 CNS it was 91.4 µM.
Take `O=C(Cn1cc(Br)c(=O)[nH]c1=O)c1ccc(-c2ccccc2)cc1`: the TGI is > 100 µM in the experiment with UACC-62 melanoma; > 100 µM in the experiment with A549 NSCLC; > 27.5 µM in the experiment on NCI-H23 lung; > 100 µM in the experiment with HCT-116 colon; > 100 µM in the experiment on EKVX NSCLC; > 17.3 µM with SK-MEL-2 melanoma. The TGI was 39.7 µM in the experiment with HCT-15 colon; > 29.9 µM with SK-MEL-5 melanoma; 13.2 µM in the experiment on SNB-19 CNS; > 45.9 µM with PC-3 prostate; > 100 µM in the experiment with TK-10 renal; > 100 µM with A498 renal. Also, the TGI in the experiment with UO-31 renal was > 100 µM; with SR leukemia it was > 100 µM; with T-47D breast, > 100 µM; in the experiment with HCC-2998 colon, > 28.7 µM; in the experiment with RPMI-8226 leukemia, > 100 µM; with HOP-62 NSCLC, 39.2 µM. The TGI with U251 CNS worked out at 62.5 µM; with SNB-75 CNS, 6.51 µM.
As for `N#Cc1c(Cl)c2cccnc2n2c1nc1ccccc12`, the TGI in the experiment with UACC-62 melanoma turned out to be 9.1 µM; with A549 NSCLC it was 18.6 µM; in the experiment on NCI-H23 lung it was 4.28 µM; in the experiment on HCT-116 colon, 3.19 µM; in the experiment on EKVX NSCLC, 14.9 µM; with SK-MEL-2 melanoma, 23.3 µM. The TGI turned out to be 3.82 µM in the experiment with HCT-15 colon; 2.6 µM in the experiment on SK-MEL-5 melanoma; 38.5 µM in the experiment on SNB-19 CNS; 6.23 µM with PC-3 prostate; 3.09 µM with TK-10 renal; 31.1 µM with A498 renal. Besides, the TGI in the experiment with UO-31 renal is 3.33 µM; in the experiment with SR leukemia, 5.83 µM; in the experiment with T-47D breast, 4.79 µM; in the experiment with HCC-2998 colon, 10.7 µM; with RPMI-8226 leukemia, 5.67 µM; in the experiment on HOP-62 NSCLC, > 56.1 µM. For the same compound, the TGI in the experiment with U251 CNS stood at 10.3 µM; in the experiment with SNB-75 CNS, 15.4 µM.
For `Cc1ccc(S(=O)C[C@](NC(=O)OCc2ccccc2)(Sc2ccccc2)C(F)F)cc1` (stereo not given in full), the TGI is 29.9 µM in the experiment on UACC-62 melanoma; > 100 µM with A549 NSCLC; 36.4 µM in the experiment on NCI-H23 lung; 34.8 µM with HCT-116 colon; 29.3 µM in the experiment on EKVX NSCLC; 71.6 µM with SK-MEL-2 melanoma. The TGI stood at 40.3 µM in the experiment with HCT-15 colon; 28 µM in the experiment on SK-MEL-5 melanoma; 31.3 µM in the experiment with SNB-19 CNS; 74.2 µM in the experiment on PC-3 prostate; 42.6 µM with TK-10 renal; 29.7 µM in the experiment on A498 renal. Moreover, the TGI in the experiment with UO-31 renal was 22.3 µM; with SR leukemia it was 30.7 µM; in the experiment on T-47D breast it was 40 µM; in the experiment with HCC-2998 colon it was 35.9 µM; in the experiment with RPMI-8226 leukemia, 45 µM; in the experiment with HOP-62 NSCLC it was 86.9 µM. The TGI with U251 CNS was 35.5 µM; with SNB-75 CNS it was 28.3 µM.

Values taken from PubChem BioAssay (NCI).
